Ends that are not written are not given here.
Assays:
Assay type in all cases: in vivo, dog
Beagle dogs [1] = assay: Non-GLP dose range study, single slow intravenous injection; conditions: for Severity of angio-neurotic oedema and urticaria: 12.5 mg/kg
Protocol: A non-GLP study was conducted to examine a dose range for Tat-NR2B9c, administered to Beagle dogs by a single, slow intravenous injection. Two animals (one male and one female Beagle dog) were dosed intravenously with Tat-NR2B9c on seven occasions. There was a 3-4 day wash-out period between the doses. The first dose was given at 2.5 mg/kg. […] There was no reaction in the female dog. […] The third dose was given at 12.5 mg/kg. […] The reaction in the male dog was assessed to be moderate, and in the female animal, the reaction was mild. The next dose was set at 20.0 mg/kg. […] The animal was treated with i.v. administration of benadryl and dexamethasone. BP at 5 minutes post-dosing was recorded as 37/13 mm Hg (nomial BP in a dog is ˜160/90). A decision was made not to dose the female animal.
The next doses were given in order to better understand the type of reactions seen in preceding doses. The fifth and sixth doses were set at 2.5 and 5.0 mg/kg.

Beagle dogs [2] = assay: GLP cardiovascular telemetry study, escalating doses (CRM Study No. 691106)
Protocol: In a GLP cardiovascular telemetry study in unrestrained conscious Beagle dogs (CRM Study No. 691106), 6 animals (3 males, 3 females) were administered escalating doses of Tat-NR2B9c (0.25, 1.0, or 5.0 mg/kg gross peptide), with a washout period of 3 days between dose levels. […] Moreover, the time-frame between the low dose (0.25 mg/kg) and the high dose (5.0 mg/kg) was about 6 days, i.e., of insufficient duration to allow the generation of an immune response. The effect is thus caused by a direct degranulation of mast cells causing histamine release.

Beagle dogs [3] = assay: GLP cardiovascular telemetry study at 10 mg/kg (CRM Study No. 691429)
Protocol: To obtain detailed cardiovascular information at the highest dose level tested in the 14-day dog repeated-dose toxicity study (i.e., 10 mg/kg), an additional GLP cardiovascular telemetry study in unrestrained, conscious, Beagle dogs was performed (CRM Study No. 691429). Six animals (3 males, 3 females) received vehicle in the morning and 10 mg/kg Tat-NR2B9c in the afternoon of the same day (at least 4 hours between doses). […] The female animals used in this additional cardiovascular study were obtained from the Charles River colony and were non-nave animals that had been previously used in the first cardiovascular study for Tat-NR2B9c (CRM Study No. 691106).

## YGRKKRRQRRRKLSSIESDV [Tat-NR2B9c]
Beagle dogs [1]; 5.0 mg/kg, female dog
  Reaction: no reaction
Beagle dogs [1]; 5.0 mg/kg, male dog
  Reaction: moderate reaction
Beagle dogs [1]; 7.5 mg/kg, both animals
  Vital signs (heart rate, blood pressure, respiratory rate and body temperature): stayed within the normal physiological ranges
Beagle dogs [1]; 7.5 mg/kg, female dog
  Reaction: no reaction
Beagle dogs [1]; 7.5 mg/kg, male dog
  Reaction: angio-neurotic edema of the soft tissue of the head and urticaria type of reaction
Beagle dogs [1]; female dog
  Severity of angio-neurotic oedema and urticaria: mild
Beagle dogs [1]; male dog
  Severity of angio-neurotic oedema and urticaria: moderate
Beagle dogs [1]; 20.0 mg/kg, male dog
  Reaction: went into shock
Beagle dogs [1]; 20.0 mg/kg, male dog, treated with benadryl and dexamethasone
  Blood pressure at 5 minutes post-dosing: 37/13
Beagle dogs [1]; fifth dose 2.5 mg/kg
  Adverse reactions: reddening of ear and face of the male dog
Beagle dogs [1]; first dose 2.5 mg/kg, male and female dog
  Signs of toxicity: did not show any signs of toxicity
Beagle dogs [1]; high doses
  Conclusion of dose range study: capable of inducing profound transient hypotension and urticaria-like skin reactions
Beagle dogs [2]; 5 mg/kg
  Dogs with transient drop in blood pressure: 4 of 6
  Duration of transient drop in blood pressure: approximately 30 minutes
Beagle dogs [2]; 0.25 or 1.0 mg/kg
  Effects on blood pressure: No effects
Beagle dogs [3]
  Time post-dose over which increases in heart rate were observed: up to 15 minutes
Beagle dogs [3]; individual animals at 5 to 10 minutes post-dose
  Decreases in blood pressure values: up to 62%
Beagle dogs [3]; males and females
  Time of maximum effect on heart rate: 10 min
